Laboratory results reported in publication PMC3747596 (PLoS ONE, 2013).

Columns and labels:
α1A-AR [1] = target: T1, α1A-AR (Homo sapiens, UniProt P35348); assay: Intracellular calcium mobilization assay, α1A-AR
T1 sequence (P35348 1-466): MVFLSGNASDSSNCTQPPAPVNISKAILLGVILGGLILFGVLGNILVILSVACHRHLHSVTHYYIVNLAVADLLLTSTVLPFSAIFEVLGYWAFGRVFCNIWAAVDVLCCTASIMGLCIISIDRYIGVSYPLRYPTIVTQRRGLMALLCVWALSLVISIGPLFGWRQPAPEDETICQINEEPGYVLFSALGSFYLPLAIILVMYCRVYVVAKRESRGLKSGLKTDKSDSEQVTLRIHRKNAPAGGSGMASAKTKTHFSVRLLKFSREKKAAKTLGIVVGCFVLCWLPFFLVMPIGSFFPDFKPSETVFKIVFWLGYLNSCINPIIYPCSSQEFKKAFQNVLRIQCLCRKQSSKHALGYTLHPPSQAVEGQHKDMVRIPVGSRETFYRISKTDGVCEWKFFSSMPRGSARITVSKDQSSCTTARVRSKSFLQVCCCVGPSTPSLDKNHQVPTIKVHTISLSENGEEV

μ opioid receptor = target: T2, μ opioid receptor (Homo sapiens, UniProt P35372); assay: Radioligand displacement, μ; format: binding
T2 construct: expressed in transfected cells
T2 sequence (P35372 whole entry): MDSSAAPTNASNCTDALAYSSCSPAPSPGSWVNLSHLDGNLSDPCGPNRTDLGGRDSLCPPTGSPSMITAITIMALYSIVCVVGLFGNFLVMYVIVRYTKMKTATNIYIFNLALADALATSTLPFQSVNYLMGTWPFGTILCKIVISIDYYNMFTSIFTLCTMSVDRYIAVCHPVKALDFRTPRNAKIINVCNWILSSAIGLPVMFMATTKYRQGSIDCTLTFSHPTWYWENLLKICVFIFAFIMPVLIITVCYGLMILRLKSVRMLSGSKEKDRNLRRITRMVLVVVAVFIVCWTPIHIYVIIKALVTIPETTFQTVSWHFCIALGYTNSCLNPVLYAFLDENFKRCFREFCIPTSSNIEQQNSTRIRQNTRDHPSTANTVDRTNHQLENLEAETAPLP

α1A-AR [2] = target: T1, α1A-AR; assay: PI hydrolysis assay, α1A-AR; details: hydrolysis of phosphatidylinositol 4,5-bisphosphate (PI)
δ opioid receptor = target: T3, δ opioid receptor (Homo sapiens, UniProt P41143); assay: Radioligand displacement, δ; format: binding; details: K i, radioligand displacement (Table 1)
T3 construct: expressed in transfected cells
T3 sequence (P41143 whole entry): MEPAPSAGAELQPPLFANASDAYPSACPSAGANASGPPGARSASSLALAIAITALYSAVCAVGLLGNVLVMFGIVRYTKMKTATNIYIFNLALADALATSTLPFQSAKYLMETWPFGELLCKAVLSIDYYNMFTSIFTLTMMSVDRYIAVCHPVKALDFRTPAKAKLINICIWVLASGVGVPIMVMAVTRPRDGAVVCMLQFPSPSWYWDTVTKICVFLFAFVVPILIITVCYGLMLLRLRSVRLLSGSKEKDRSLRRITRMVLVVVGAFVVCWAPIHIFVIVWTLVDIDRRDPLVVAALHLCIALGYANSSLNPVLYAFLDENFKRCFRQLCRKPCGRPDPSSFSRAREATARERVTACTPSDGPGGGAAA

κ-OR = test system: κ-OR; parameters: method as in ref 3 = [3]; 3 Béguin C, Cohen BM (2009) Medicinal Chemistry of Kappa Opioid Receptor Antagonists. In: Dean RL, Bilsky EJ, Negus SS, editors. Opiate Receptors and Antagonists: from Bench to Clinic. New York: Human; details: cited from earlier work
human NOP = target: T4, human NOP (Homo sapiens, UniProt P41146); assay: Inhibition of cyclic AMP production by N/OFQ, GloSensor assay in HEK293T cells; format: cell-based
T4 construct: expressed in transfected cells; host or cells: HEK293T
T4 sequence (P41146 whole entry): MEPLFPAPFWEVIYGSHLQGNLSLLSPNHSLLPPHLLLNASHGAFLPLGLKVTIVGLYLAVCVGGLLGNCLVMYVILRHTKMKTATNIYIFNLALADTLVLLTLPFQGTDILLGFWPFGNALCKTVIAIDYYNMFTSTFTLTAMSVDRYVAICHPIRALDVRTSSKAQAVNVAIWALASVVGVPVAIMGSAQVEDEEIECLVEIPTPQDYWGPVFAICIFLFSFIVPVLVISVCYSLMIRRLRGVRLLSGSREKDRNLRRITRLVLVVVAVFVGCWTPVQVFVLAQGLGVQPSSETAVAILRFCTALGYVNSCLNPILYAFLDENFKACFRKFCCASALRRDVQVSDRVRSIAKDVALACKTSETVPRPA

[3] = target: N-methyl-D-aspartate (NMDA) receptor; parameters: method as in PMID 7681005; details: [3H]CGP-39,653, glutamate site; cited from earlier work
[4] = target: nociceptin/orphanin FQ receptor (NOP); parameters: method as in PMID 8943250; details: cited from earlier work

N=C(N)Nc1ccc2[nH]c3c(c2c1)C[C@@]1(O)[C@H]2Cc4ccc(O)c5c4[C@@]1(CCN2CC1CC1)[C@H]3O5 [GNTI, 5′-guanidinonaltrindole]
EC50 (α1A-AR [1]): 41 nM
activation of α1A-AR / inhibition of activation by noradrenaline (α1A-AR [1]; calcium mobilization, GNTI 30 µM): neither activated α1A-AR nor inhibited activation by noradrenaline
Emax (α1A-AR [1]; read-out: increase of the maximal response to noradrenaline): ≤ 20%
Ki (μ opioid receptor): 54 nM
effect on maximal response to noradrenaline, PI hydrolysis (α1A-AR [2]): slightly reduced the maximal response to noradrenaline
Ki (δ opioid receptor): 58 nM

CC(C)[C@@H](CN1CC[C@@](C)(c2cccc(O)c2)[C@@H](C)C1)NC(=O)[C@H]1Cc2ccc(O)cc2CN1 [JDTic]
K e in κ-OR functional assays (κ-OR): < 20 pM
K B equivalent to the pA2 for a competitive antagonist (human NOP; 95% CI = 4.6 to 1,200 nM): 73 nM
effect on maximally-effective concentrations of N/OFQ (>100 nM) (human NOP; JDTic 30 µM): not affected
Kb (human NOP; antagonism of N/OFQ, inhibition of cyclic AMP production, read-out: pA2 (converted)): 79.4 nM

Oc1ccc2c3c1O[C@H]1c4[nH]c5c(c4C[C@@]4(O)[C@@H](C2)N(CC2CC2)CC[C@]314)C[C@@]1(O)[C@H]2Cc3ccc(O)c4c3[C@@]1(CCN2CC1CC1)[C@H]5O4 [nor-BNI, Nor-binaltorphimine]
Ki [3]: > 1000 nM
Ki [4]: 780 nM
